Test results as given in ChEMBL document CHEMBL4052808, “Novel anti-prostate cancer scaffold identified by the combination of in silico and cell-based assays targeting the PI3K-AKT-mTOR pathway” (Bioorg Med Chem Lett, 2017).
Active and inactive are the calls of the source. The rule behind the calls is not given here.

Key:
[1] = Selectivity index, ratio of cytotoxic concentration against mouse Balb/c 3T3 clone A31 cells to EC50 for human PC3 cells; type: functional
[2] = species: Homo sapiens; experiment: Inhibition of […] pathway in human PC3 cells assessed as phosphorylation of AKT at ser473 residues at 100 uM after 1 hr by PerCP probe based flow cytometric analysis (reference value: 43.92%); type: cell-based
[3] = species: Homo sapiens; experiment: Inhibition of […] pathway in human PC3 cells assessed as phosphorylation of S6 at ser235 residues at 100 uM after 1 hr by alexa fluor 488 probe based flow cytometric analysis (reference value: 48.58%); type: cell-based
[4] = Cytotoxicity against mouse Balb/c 3T3 clone A31 cells assessed as cell viability at 100 uM by MTT assay relative to control; type: cell-based; settings: read-out: Activity
[5] = tested on: PC-3; experiment: Cytotoxicity against human PC3 cells by MTT assay; type: functional, cell-based
[6] = tested on: DU-145; experiment: Cytotoxicity against human DU145 cells by MTT assay; type: functional, cell-based

Compound | Selectivity Index [1] | inhibition [2] | inhibition [3] | viability at 100 µM [4] | EC50 [5] | Activity [6] | EC50 [6]
CO[C@H]1C[C@@H]2CC[C@@H](C)[C@@](O)(O2)C(=O)C(=O)N2CCCC[C@H]2C(=O)O[C@H]([C@H](C)C[C@@H]2CC[C@@H](O)[C@H](OC)C2)CC(=O)[C@H](C)/C=C(\C)[C@@H](O)[C@@H](OC)C(=O)[C@H](C)C[C@H](C)/C=C/C=C/C=C/1C [SIROLIMUS] | >2.32 | 28.9% | 7.24% | 58.3% | 43.1 µM |  | 
Nc1ccc(C(=O)N2CCC(Cc3ccc(F)cc3)CC2)cn1 | >1.33 | 39.4% | 14% | 68.1% | 75 µM | inactive | 
COCC[n+]1c2c(n(Cc3cnccn3)c1C)C(=O)c1ccccc1C2=O [SEPANTRONIUM BROMIDE] |  |  |  |  | 0.092 µM |  | 0.0138 µM
Cc1ccccc1SC1CCN(C(=O)c2ccc(N)nc2)CC1 | >1.65 | 34.8% | 15.5% | 95.4% | 60.7 µM | inactive | 
